Results on four compounds are retold here after article PMC10552471 (ACS Omega, 2023).

What all share (assay type): biochemical
Assay [1] concerns the target T1, Plasmodium falciparum serine hydroxymethyltransferase (PfSHMT) (Plasmodium falciparum, UniProt Q8I566).
T1 sequence (Q8I566 1-442): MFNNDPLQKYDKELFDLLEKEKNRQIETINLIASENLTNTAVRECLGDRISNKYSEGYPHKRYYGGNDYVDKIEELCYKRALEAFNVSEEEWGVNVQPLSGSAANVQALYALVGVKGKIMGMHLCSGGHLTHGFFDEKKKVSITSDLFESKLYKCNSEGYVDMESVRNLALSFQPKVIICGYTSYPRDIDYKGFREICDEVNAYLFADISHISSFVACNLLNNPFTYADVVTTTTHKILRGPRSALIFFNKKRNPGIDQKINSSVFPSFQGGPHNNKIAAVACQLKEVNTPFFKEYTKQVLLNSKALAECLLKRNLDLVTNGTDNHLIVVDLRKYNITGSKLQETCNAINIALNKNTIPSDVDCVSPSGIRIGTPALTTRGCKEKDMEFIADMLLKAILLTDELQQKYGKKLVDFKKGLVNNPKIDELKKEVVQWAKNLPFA
In words: MTHFD-coupled enzyme assay at a single concentration. To be noted: read-out: % inhibition at 100 μM.

Assay [2] addresses T1, Plasmodium falciparum serine hydroxymethyltransferase (PfSHMT).
The target is the same in assay [3]. Briefly: MTHFD-coupled enzyme assay, […], […] to […] h incubation. To be noted: read-out: % inhibition at 100 μM.

Where a name gives a salt, the structure may show the parent alone.

Usually inhibition stands for the percentage by which the read-out fell short of the control. On to `CO[C@H]1/C=C/O[C@@]2(C)Oc3c(C)c(O)c4c(c3C2=O)C2=NC3(CCN(CC(C)C)CC3)NC2=C(NC(=O)/C(C)=C\C=C\[C@H](C)[C@H](O)[C@@H](C)[C@@H](O)[C@@H](C)[C@H](OC(C)=O)[C@@H]1C)C4=O` [rifabutin], for which the inhibition at 100 µM in assay [1] is 20 to 50%.

Usually IC50 stands for the concentration that inhibits the measured activity by half. Low values mean higher potency, high ones lower potency. Take `C[C@@H]1[C@H](O)[C@@H](C)/C=C/C=C/C=C/C=C/C=C/C=C/C=C/[C@H](O[C@@H]2O[C@H](C)[C@@H](O)[C@H](N)[C@@H]2O)C[C@@H]2O[C@](O)(C[C@@H](O)C[C@@H](O)[C@H](O)CC[C@@H](O)C[C@@H](O)CC(=O)O[C@H]1C)C[C@H](O)[C@H]2C(=O)O` [amphotericin B]: in assay [2], the IC50 amounted to 106 ± 1 µM.

Turning to `CC(C)[C@@]1(NC(=O)[C@@H]2C[C@@H]3c4cccc5[nH]cc(c45)C[C@H]3N(C)C2)O[C@@]2(O)[C@@H]3CCCN3C(=O)[C@H](Cc3ccccc3)N2C1=O` [dihydroergocristine mesylate], in assay [1], the inhibition at 100 µM was 20 to 50%.

For the compound `CO[C@H]1/C=C/O[C@@]2(C)Oc3c(C)c(O)c4c(O)c(c5c(nc6cc(C)ccn65)c4c3C2=O)NC(=O)/C(C)=C\C=C\[C@H](C)[C@H](O)[C@@H](C)[C@@H](O)[C@@H](C)[C@H](OC(C)=O)[C@@H]1C` [rifaximin], the inhibition at 100 µM in assay [3] is ~60%.
